Data published in patent publication US20150119352A1, “DINUCELOSIDE POLYPHOSPHATES FOR THE TREATMENT OF PAIN” (GlobalAcorn Ltd., priority 2012, published 2015).
Like-named read-outs stand apart in the source and are kept apart here.

Key:
P2X3 receptors = biological target: T1, P2X3 receptors (Homo sapiens, UniProt P56373); conditions: Jarvis et al, 2002; cited from earlier work
T1 sequence (P56373 1-397): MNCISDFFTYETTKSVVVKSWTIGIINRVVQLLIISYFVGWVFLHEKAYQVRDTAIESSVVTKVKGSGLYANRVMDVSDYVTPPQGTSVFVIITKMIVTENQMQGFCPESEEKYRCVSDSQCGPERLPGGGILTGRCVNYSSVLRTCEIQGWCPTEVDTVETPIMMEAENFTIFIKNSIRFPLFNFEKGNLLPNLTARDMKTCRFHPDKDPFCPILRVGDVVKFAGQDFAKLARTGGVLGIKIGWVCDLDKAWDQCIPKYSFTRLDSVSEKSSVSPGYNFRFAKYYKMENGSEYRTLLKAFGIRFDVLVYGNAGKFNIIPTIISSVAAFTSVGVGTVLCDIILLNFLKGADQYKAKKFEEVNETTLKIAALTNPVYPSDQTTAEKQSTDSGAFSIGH

male Wistar rats = experiment: Formalin test (nociceptive behaviour, spontaneous jerking of injected paw); assay type: in vivo, rat; conditions: for IC50: Rattus norvegicus, Table 1, concentration; for IC50 First phase (acute pain), calculated / IC50 Second phase (chronic pain), calculated: Table 1, assuming 40 g rat body weight; for First phase (acute pain) / First phase (acute pain) (μg/kg) / Second phase (chronic pain) / Second phase (chronic pain) (μg/kg): Table 2; for First phase (acute pain) Human (70 kg) nmol / Second phase (chronic pain) Human (70 kg) nmol: Table 2, estimated indicative dose for 70 kg human; for First phase (acute pain) Rat (40 g) nmol / Second phase (chronic pain) Rat (40 g) nmol: Table 2, per 40 g rat
Method: FIG. 6. Effects of subcutaneous Ap4A analogues on pain responses induced by intraplantar (right hindpaw) formalin injection. Rats were subcutaneously injected with formalin solution alone (0.5%, 50 μL, control) or co-injected with the formalin solution and solutions with AppCH2ppA (1 μM-100 μM, 100 μL) or AppNHppA (0.1 μM-100 μM, 100 μL). Age-matched control animals were injected with saline. A. Time-course of the effects of subcutaneous AppCH2ppA (a) and AppNHppA (b) on the number of the spontaneous jerkings of the injected paw. B. Bar-graphs of the effects of AppCH2ppA (a, b) and AppNHppA (c, d) on the integral number of spontaneous jerkings. Measurements were made during the acute phase (0-6 min) and tonic phase (7-45 min) of the formalin response. C. Dose-response curves for AppCH2ppA (a) and AppNHppA (b) during tonic and acute phases.
The formalin test experiments were performed on 21-day old male Wistar rats, weighing 40±5 g according to the method described previously (Simonetti et al, 2006; Yegutkin et al, 2008). Briefly, animal was acclimated to an acrylic observation chamber for at least 1 h before the injection of formalin ([…] of 0.5% solution in 0.9% saline) into the dorsal surface of the right hindpaw. Age-matched control animals were injected with saline (100 μL). Immediately after the injection, each animal was returned to the observation chamber and its behavioural characteristics were recorded for 45 min. We noticed consistently observed type of response: spontaneous jerking of the injected paw. The number of jerks was measured for each […], using self-developed computer software.
The effects of AppNHppA and AppCH2ppA were examined on the behavioral reactions of rats in inflammatory pain models. Injection of diluted formalin into a rodent's hindpaw produces a biphasic nociceptive response consisting of immediate (acute phase) and tonic (inflammatory phase) components. The first phase of a formalin response (i.e. 0-5 min after injection) involves a direct effect of formalin on the pain receptors, while changes in animal behavior during the second tonic phase (i.e. 7-45 min after injection) are caused by hyperalgesia that develops due to the sensitization of nociceptive and spinal neurons via mechanisms that are triggered by repetitive stimulation during the first phase.

[1] = read-out: IC50 First phase (acute pain)
[2] = read-out: IC50 Second phase (chronic pain)

Row | IC50 (male Wistar rats; [1]) [nM] | IC50 (male Wistar rats; [2]) [nM] | Structure (SMILES) | concentration range of binding to P2X3 receptors (P2X3 receptors) | IC50 First phase (acute pain), calculated (male Wistar rats) [nmol/kg] | IC50 Second phase (chronic pain), calculated (male Wistar rats) [nmol/kg] | First phase (acute pain) (male Wistar rats) [nmol/kg] | First phase (acute pain) (μg/kg) (male Wistar rats) | Second phase (chronic pain) (male Wistar rats) [nmol/kg] | Second phase (chronic pain) (μg/kg) (male Wistar rats) | First phase (acute pain) Human (70 kg) nmol (male Wistar rats) [nmol] | Second phase (chronic pain) Human (70 kg) nmol (male Wistar rats) [nmol] | First phase (acute pain) Rat (40 g) nmol (male Wistar rats) [nmol] | Second phase (chronic pain) Rat (40 g) nmol (male Wistar rats) [nmol]
1 | – | – | O=C(O)c1cc(C(=O)O)c(C(=O)N(Cc2cccc(Oc3ccccc3)c2)[C@H]2CCCc3ccccc32)cc1C(=O)O [A-317491] | within a micromolar range | – | – | – | – | – | – | – | – | – | –
2 | ~50000 | 84 ± 140 | Nc1ncnc2c1ncn2[C@@H](CO)O[C@@H](CO)COP(=O)(O)OP(=O)(O)CP(=O)(O)OP(=O)(O)OC[C@H](CO)O[C@H](CO)n1cnc2c(N)ncnc21 [AdiolppCH2ppAdiol] | – | ~125 | 0.21 ± 0.35 | ~125 | (104) μg/kg | 0.21 ± 0.35 | (0.175) μg/kg | 8750 | 14.7 | 5 | 0.0084
3 | > 100000 | 180 ± 120 | Nc1nc2c(ncn2[C@@H]2O[C@H](COP(=O)(O)OP(=O)(O)CP(=O)(O)OP(=O)(O)OC[C@H]3O[C@@H](n4cnc5c(N)ncnc54)C(O)C3O)C(O)[C@@H]2O)c(=O)[nH]1 (stereo partly shown) [AppCH2ppG] | – | >250 | 0.45 ± 0.30 | >250 | (209) μg/kg | 0.45 ± 0.30 | (0.376) μg/kg | 17500 | 31.5 | 10 | 0.018
